Source: patent publication US20120101163A1, “COMPOSITION FOR INHIBITING CANCER METASTASIS” (TAIPEI MEDICAL UNIVERSITY, priority 2010, published 2012)

Experiments:
[1] = system: matrix metalloproteinase-9; test: Gelatin gel zymography of PMA-induced HT 1080 cells, MMP-9 activity; type: cell-based, Human
Method: 4. Gelatin Gel Zymography (Shim et al., 2003; Park et al., 2005; Hwang et al., 2006)
(§1) HT 1080 cells with appropriate cell numbers were cultured in 60 mm culturing plates for 12 hours, respectively. After the cells were attached onto the bottom of the plate and formed a monolayer, the medium in the plate was removed. Fresh serum free mediums with different concentrations of a test sample were added to the plates, respectively, and 100 nM PMA was added to each plate to induce the cells to express great quantities of matrix metalloproteinase-2 and matrix metalloproteinase-9, and the plates were placed in a temperature of 37° C. for 24 hours. After centrifugation, each cultured supernatant were saved and mixed with SDS-sample buffer under the same protein contents which were then injected into a 10% SDS-polyacrylamide gel (containing 1 mg/ml gelatin) and then electrophoresed. After the electrophoresis was completed, the gel was taken out and washed with 20 mM Tris-HCl containing 25% isopropanol three times; 10 minutes per time. Then the gel was equilibrated with 20 mM Tris-HCl for 30 minutes, and finally an incubate buffer (5 mM CaCl2 and 1 mM ZnCl2) was added to the gel and reacted with the gel overnight. Then the gel was stained with coomassie blue, and positions having matrix metalloproteinase activity of the gel presented a white color.

HT 1080 cells [2] = test: Cell adhesion assay (gelatin-coated plate); type: cell-based, Human
Method: 11. Cell Adhesion Assay (Lee et al., 2005; Ouyang et al., 2005; Zhang et al., 2005)
HT 1080 cells were used to prepare a cell suspension with an appropriate concentration by a fresh serum free medium, and the cell suspension was mixed with test drugs with different concentrations, respectively and then added to wells of a 24 well culturing plate pre-coated with gelatin, respectively. The 24 well culturing plates were placed in an incubator at 37° C. for 30 minutes. After that, the upper medium in each well was removed and the cells were washed with a PBS buffer twice, and then an MTT solution which was prepared with a medium was added to each well. After the 24 well culturing plates were placed in an incubator at 37° C. for reacting for 4-6 hours, an upper medium in each well was removed, and 100 μl of DMSO was added to each well to solubilize the formazan precipitates. After that, an ELISA reader was used to determine the absorbance at 600 nm for each well. The calculation for the adhesion rate of the cells was: […]

[3] = system: matrix metalloproteinase-2; test: RT-PCR, MMP-2 gene expression in HT 1080 cells; type: cell-based, Human
Method: 7. RNA Extraction and Reverse Transcription-Polymerase Chain Reaction (RT-PCR)
HT 1080 cells with appropriate cell numbers were cultured in 60 mm culturing plates for 6 hours, respectively. After the cells were attached onto the bottom of the plate and formed a monolayer, the medium in the plate was removed. Fresh serum free mediums with different concentrations of a test sample were added to the plates, respectively, and 100 nM PMA was added to each plate to induce the cells to express great quantities of matrix metalloproteinase-2 and matrix metalloproteinase-9, and the plates were placed in a temperature of 37° C. for 6 hours. After that, the total RNA of the cells were extracted with the TRIzol reagent and reverse transcripted by a reverse transcriptase to synthesize cDNA. The synthesize cDNA was used as a template to perform GADPH, matrix metalloproteinase-2 and matrix metalloproteinase-9 PCR amplifications.

[4] = target: T1, matrix metalloproteinase-2 (Homo sapiens, UniProt P08253); test: Extracellular inhibition test on enzyme activity of secreted MMP-2 in cultured medium; type: biochemical; conditions: cultured medium of PMA induced HT 1080, different concentrations, 24 hours
T1 construct: matrix metalloproteinase-2 and matrix metalloproteinase-9 were secreted from the PMA induced HT 1080; endogenous in cells; host or cells: HT 1080 cells induced with 100 nM PMA
T1 sequence (P08253 110-660): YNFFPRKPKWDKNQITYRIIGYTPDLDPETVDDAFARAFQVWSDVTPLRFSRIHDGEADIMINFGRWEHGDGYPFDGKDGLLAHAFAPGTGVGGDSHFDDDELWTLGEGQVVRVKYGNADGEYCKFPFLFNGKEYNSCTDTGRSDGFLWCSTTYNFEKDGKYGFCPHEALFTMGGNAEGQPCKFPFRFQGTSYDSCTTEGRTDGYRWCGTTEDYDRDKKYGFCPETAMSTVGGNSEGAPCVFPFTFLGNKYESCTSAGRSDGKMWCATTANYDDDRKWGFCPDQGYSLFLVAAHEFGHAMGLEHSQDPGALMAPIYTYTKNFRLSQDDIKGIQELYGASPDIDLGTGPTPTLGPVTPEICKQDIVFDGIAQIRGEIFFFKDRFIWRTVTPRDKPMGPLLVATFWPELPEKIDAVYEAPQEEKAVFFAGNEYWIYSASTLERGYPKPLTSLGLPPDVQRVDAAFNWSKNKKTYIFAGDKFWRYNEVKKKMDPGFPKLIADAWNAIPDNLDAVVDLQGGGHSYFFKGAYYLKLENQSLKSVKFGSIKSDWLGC
Method: as §1, with “Then the gel was equilibrated with 20 mM Tris-HCl for 30 minutes, and finally an incubate buffer (5 mM CaCl2 and 1 mM ZnCl2) was added to the gel and reacted with the gel overnight. Then the gel was stained with coomassie blue, and positions having matrix metalloproteinase activity of the gel presented a white color.” left out
HT 1080 cells were induced with PMA, and the cultured medium for culturing the HT 1080 cells therefrom was taken out and treated with the different concentrations of L-Glutamic acid γ-hydroxamate (DH) for 24 hours, respectively. After that the enzyme activities of the matrix metalloproteinase-2 and matrix metalloproteinase-9 in the medium were analyzed. […]

HT 1080 cells [5] = test: Invasion assay (Matrigel transwell); type: cell-based, Human
Method: 10. Invasion Assay (Lee et al., 2005; Huang et al., 2005; Park et al., 2005)
HT 1080 cells were used to prepare a cell suspension with an appropriate concentration by a fresh serum free medium and than placed in each upper chamber of each transwell (BD Matrigel™ Invasion Chamber 24-Well Plate 8.0 Micron). Fresh serum containing mediums with different concentrations of a test drug were added to the lower chambers of the transwells, respectively. The transwells were placed in an incubator containing 5% CO2 at 37° C. for 18 hours. After that, the medium in the upper chamber was removed and cells on the upper surface of the membrane of the transwell were wiped by a cotton swab. Finally, the cells were fixed and stained. The calculation for the invasion rate of the cells was:
Ne: Numbers of cells crossing the membrane Nc: Numbers of total cells

[6] = about 0.1-3 mM, stated as embodiment

`NC(CCC(=O)NO)C(=O)O` [DH, L-Glutamic acid γ-hydroxamate] was tested. Which “protein activity of matrix metalloproteinase-9 secreted out of and left in HT 1080 cells” value ([1]; 0.4, 0.8, 1.2, and 1.6, 24 hours) did it give?
Its value is “also decreased”.

And the “inhibition rate to the activity of matrix metalloproteinase-9” value ([1]; HT 1080 cells treated 24 hours)?
The value was “greater than 50%”.

And the “matrix metalloproteinase-9 inhibiting activity” value ([1]; HT 1080 cells, 0.4, 0.8, 1.2 and 1.6 mM, 24 hours)?
Its value is “increased while the concentration thereof was increased”.

What about the “inhibition rate to the protein activity of matrix metalloproteinase-9 of a cancer cell” value ([1]; about 0.1-2 mM, stated as embodiment, 'and/or' MMP-2) of the same compound?
The value was 40-70%.

What about the “number of HT 1080 cells attached (adhesion)” value (HT 1080 cells [2]; 0.4, 1.2, 2 and 2.8 mM, gelatin coated plate, 30 minutes) of the same compound?
The value was “slight dose dependent decreasing trend”.

What about the “inhibition rate to cancer cell adhesion” value (HT 1080 cells [2]; [6]) of the same compound?
Its value is 10-30%.

And the “gene expression (mRNA) of matrix metalloproteinase-2” value ([3]; HT 1080 cells, 0.4, 0.8, 1.2, and 1.6, 6 hours, RT-PCR)?
Its value is “decreased”.

What about the “inhibition rate to the gene transcriptional expression of metalloproteinase-2 of a cancer cell” value ([3]; about 0.1-2 mM, stated as embodiment, 'and/or' MMP-9) of the same compound?
The value was 20-80%.

And the “direct inhibition of enzyme activity of secreted matrix metalloproteinase-2” value [4]?
Its value is “no inhibition”.

What about the IC50 (HT 1080 cells [5]; Homo sapiens, HT-1080, 0.8, 1.6 and 2.4 mM, 18 hours, read-out: IC50 HT 1080 crossing membrane to the lower chamber (invasion)) of the same compound?
The IC50 was 1260 µM.

And the “inhibition rate to cancer cell invasion” value (HT 1080 cells [5]; [6])?
Its value is 40-85%.
